Test results as given in patent US9353116B2, “Methods and compositions for kinase inhibition” (THE REGENTS OF THE UNIVERSITY OF CALIFORNIA, priority 2010, dated 2016).
pIC50: −log10 of the molar value. Where two headings read alike, the source gives them in different places.

Columns and labels:
[1] = biological target: T1, T338C c-Src (Gallus gallus (Chicken), UniProt P00523, T338C); test: In vitro kinase assay, T338C c-Src (c-Src-ES1); type: biochemical
Experimental: In vitro kinase assays for c-Src variants were performed in 50 mM Tris (pH 8.0), 10 mM MgCl2 and 1 mg/mL BSA. When obtaining kinetic parameters (kcat, Km) kinase and peptide substrate (IYGEFKKK) (SEQ ID NO:51) concentrations were 2 nM and 500 μM, respectively, while ATP concentrations ranged from 2000-0.655 μM. Addition of nonradioactive ATP supplemented with ^32P ATP (3,000 Ci/mmol, NEN) was used to initiate kinase reactions. Time points were selected such that product formation never exceeded 10%. Reactions were quenched by spotting 3 μL quantities onto phosphocellulose sheets (P81, Whatman). Afterwards, the sheets were washed 3×5 minutes in 0.5% phosphoric acid and dried. Radioactivity was measured by phosphorimaging and recorded on a Typhoon fluorescence imager (Molecular Dynamics). Data were plotted as rate (min^−1) versus ATP concentration and fitted to the Michaelis-Menten equation, v=[(kcat)[S]]/(Km+[S]), using Kaleidagraph software (Synergy) to extract kinetic parameters. When obtaining IC50 values for the inhibitors, 2% (v/v) DMSO was included in kinase reactions. In these cases ATP, peptide, and enzyme concentrations were 15 nM, 100 μM and 5 nM, respectively, while inhibitor concentrations ranged from 10,000-0.610 nM. […] The data was fitted to a sigmoidal dose-response curve using Prism 4.0c (GraphPad Software) to obtain IC50 values.

[2] = biological target: I338T v-Src (Rous sarcoma virus (strain H-19), UniProt P25020, I338T); type: cell-based
Experimental: Curr Biol 8(5):257-266. Cells were grown to 60-90% confluence in DMEM supplemented with fetal bovine serum (10%), penicillin ‘G’ (100 units/ml) and streptomycin sulfate (100 μg/ml) (PenStrep, UCSF Cell Culture Facility) prior to treatment with kinase inhibitors dissolved in DMSO (final DMSO concentration, 0.5%). Following 1 hour of incubation with inhibitors at 37° C., cells were harvested in lysis buffer (50 mM Tris (pH 7.4), 300 mM NaCl, 5 mM EDTA, 1% triton, 0.02% NaN3, 1× complete mini protease inhibitor (Roche), 1 mM PMSF, 1×PHOS-stop (Roche), 0.02 μM microcystin, 2 mM sodium orthovanadate), normalized for concentration and analyzed by Western blot for global phosphotyrosine levels (4G10, Millipore, 1:1000). Levels of β-actin (β-actin Antibody, Cell Signaling, 1:1000) and v-Src (Src 32G6 rabbit mAb, Cell Signaling, 1:1000) were ascertained by Western blot.
I338C (v-Src-ES1, SEQ ID NO:48), I338T (SEQ ID NO:49), I338G (v-Src-AS1, SEQ ID NO:50) and WT v-Src-transformed NIH-3T3 cell lines were generated. Unlike c-Src, v-Src is constitutively active and harbors an isoleucine gatekeeper. The I338T v-Src variant was generated for consistency with the in vitro c-Src studies. For each cell line, global levels of phosphotyrosine were analyzed (FIG. 7). […]

[3] = biological target: c-Src-ES3 (T338C/V323S) (Gallus gallus (Chicken), UniProt P00523, T338C/V323S); test: In vitro kinase assay, c-Src-ES3; type: biochemical
Experimental: In vitro kinase assays for c-Src variants were performed in 50 mM Tris (pH 8.0), 10 mM MgCl2 and 1 mg/mL BSA. When obtaining kinetic parameters (kcat, Km) kinase and peptide substrate (IYGEFKKK) (SEQ ID NO:51) concentrations were 2 nM and 500 μM, respectively, while ATP concentrations ranged from 2000-0.655 μM. Addition of nonradioactive ATP supplemented with ^32P ATP (3,000 Ci/mmol, NEN) was used to initiate kinase reactions. Time points were selected such that product formation never exceeded 10%. Reactions were quenched by spotting 3 μL quantities onto phosphocellulose sheets (P81, Whatman). Afterwards, the sheets were washed 3×5 minutes in 0.5% phosphoric acid and dried. Radioactivity was measured by phosphorimaging and recorded on a Typhoon fluorescence imager (Molecular Dynamics). Data were plotted as rate (min^−1) versus ATP concentration and fitted to the Michaelis-Menten equation, v=[(kcat)[S]]/(Km+[S]), using Kaleidagraph software (Synergy) to extract kinetic parameters. When obtaining IC50 values for the inhibitors, 2% (v/v) DMSO was included in kinase reactions. In these cases ATP, peptide, and enzyme concentrations were 15 nM, 100 μM and 5 nM, respectively, while inhibitor concentrations ranged from 10,000-0.610 nM. In all cases, a ten-minute preincubation step between the kinase and the inhibitor preceded addition of ATP and a fifteen-minute reaction. The data was fitted to a sigmoidal dose-response curve using Prism 4.0c (GraphPad Software) to obtain IC50 values.

[4] = biological target: T1, T338C c-Src; test: Gel filtration and kinetic assay, T338C c-Src; type: biochemical; conditions: 23 μM inhibitor, 25 minutes, then PD10 desalting
Experimental: Inhibitors (final concentration 23 μM) were incubated with c-Src variants (final concentration 11.5 μM) in kinase reaction buffer (50 mM Tris pH 8, 100 mM NaCl, 1 mM DTT, 5% glycerol, 5% DMSO) for 25 minutes at room temperature. The solutions (2.6 mL total) were then passed over PD10 desalting columns (GE Healthcare) using the kinase reaction buffer for elution. Src concentrations were calculated using the extinction coefficient for c-Src (51.140 mM^−1cm^−1) {Seeliger, 2005 #100}. Kinase assays were performed as described in the experimental section at a final enzyme concentration of 10 nM.

## CC(C)n1nc(Cc2cccc(C(=O)CF)c2)c2c(N)ncnc21 [Compound 13, 1-(3-((4-amino-1-isopropyl-1H-pyrazolo[3,4-d]pyrimidin-3-yl)methyl)phenyl)-2-fluoroethanone]
[1]
  time dependence of inhibition of T338C c-Src: time-dependent manner
[1]; ES1 = T338C, read-out: c-Src variant IC50 (nM) ES1
  IC50: 338 nM
[1]; T338C c-Src
  fold more potent than the corresponding ketone 14: > 13 fold
[1]; T338C c-Src IC50 (nM), preincubation time 2 min
  IC50: 1280 nM
[1]; T338C c-Src IC50 (nM), preincubation time 20 min
  IC50: 318 nM
[1]; T338C c-Src IC50 (nM), preincubation time 40 min
  IC50: 136 nM
[1]; inhibitor preincubated with Src ten minutes prior to addition of ATP, read-out: T338C c-Src IC50
  pIC50: 6.47
[2]
  inhibition of I338T v-Src in cells (global phosphotyrosine levels): neither 9 nor 13 inhibited I338T v-Src
[3]; ES3 = T338C/V323S, read-out: c-Src variant IC50 (nM) ES3
  IC50: 29 nM
[3]; c-Src-ES3 relative to c-Src-ES1
  fold improvement in potency with V323S mutation: 12 fold
[4]
  inhibitory activity after gel filtration, T338C c-Src: retained
